The values below are quoted from earlier work in patent publication US20160374912A1, “TOPICALLY APPLICABLE CHEMICAL PEEL COMPOSITION” (L'OREAL, priority 2015, published 2016).

As usually defined, the Log P is a log measure of how a compound divides between an organic and an aqueous phase.

Experiment in data set [1]: not given
This is another data set of the same source.

With `CC(c1ccccc1)c1ccc(O)cc1O` (stereo not shown) [Phenylethyl Resorcinol], the “Log P” value is listed as 2.11. The pKA in data set [1] was 9.77-10.77.

With `Oc1cccc(O)c1` [Resorcinol], the “Log P” value was 2.47. The pKA in data set [1] is recorded as 9.32-9.81.
